Key:
Format in all cases: ADME, organism-based
[1] = AUC (0 to infinity) in healthy human at 500 mg, po administered as single dose; parameters: dose 500 mg, route oral, time infinity; conditions: plasma
[2] = Cmax in healthy human at 500 mg, po administered as single dose; parameters: dose 500 mg, route oral; conditions: in vivo
[3] = AUC (0 to infinity) in healthy human at 400 mg, po administered as single dose; parameters: dose 400 mg, time infinity, route oral; conditions: plasma
[4] = Cmax in healthy human at 400 mg, po administered as single dose; parameters: dose 400 mg, route oral; conditions: in vivo
[5] = Distribution half life in healthy human at 400 mg, po administered as single dose; conditions: in vivo
[6] = Terminal half life in healthy human at 400 mg, po administered as single dose; conditions: in vivo
[7] = Terminal half life in healthy human at 500 mg, po administered as single dose; conditions: in vivo
[8] = Half life in healthy human at 400 mg, po administered as single dose; conditions: in vivo

AUC(0-inf) [1] [ng·h/mL] | AUC(0-inf) [3] [ng·h/mL] | Cmax [4] [ng/mL] | SMILES | also measured
7700 |  |  | CC[C@H]1OC(=O)[C@H](C)[C@@H](O[C@H]2C[C@@](C)(OC)[C@@H](O)[C@H](C)O2)[C@H](C)[C@@H](O[C@@H]2O[C@H](C)C[C@H](N(C)C)[C@H]2O)[C@](C)(O)C[C@@H](C)C(=O)[C@H](C)[C@@H](O)[C@]1(C)O [ERYTHROMYCIN] | Cmax [2]: 2000 ng/mL
 | 3090 | 800 | CC[C@H]1OC(=O)[C@H](C)C(=O)[C@H](C)[C@@H](O[C@@H]2O[C@H](C)C[C@H](N(C)C)[C@H]2O)[C@](C)(OC)C[C@@H](C)C(=O)[C@H](C)[C@H]2N(CCCCn3cnc(-c4cccnc4)c3)C(=O)O[C@]12C [TELITHROMYCIN] | half-life [5]: 2.13 h; half-life [6]: 6.68 h
3390 |  |  | CC[C@H]1OC(=O)[C@H](C)[C@@H](O[C@H]2C[C@@](C)(OC)[C@@H](O)[C@H](C)O2)[C@H](C)[C@@H](O[C@@H]2O[C@H](C)C[C@H](N(C)C)[C@H]2O)[C@](C)(O)C[C@@H](C)CN(C)[C@H](C)[C@@H](O)[C@]1(C)O [AZITHROMYCIN] | half-life [7]: 35 h
 | 7520 | 780 | CC[C@H]1OC(=O)[C@H](C)[C@@H](O[C@H]2C[C@@](C)(OC)[C@@H](O)[C@H](C)O2)[C@H](C)[C@@H](O[C@@H]2O[C@H](C)C[C@H](N(C)C)[C@H]2O)[C@](C)(OC)C[C@@H](C)C(=O)[C@H](C)[C@@H](O)[C@]1(C)O [CLARITHROMYCIN] | half-life [8]: 3.89 h

Source: ChEMBL document CHEMBL1649161, “Pharmacokinetics of EDP-420 after ascending single oral doses in healthy adult volunteers” (Antimicrob Agents Chemother, 2009)
